How the values were obtained:
Bowes-Melanoma-Zellen = settings: Kooistra et al.; cited from earlier work
CHO-Zellen [1] = assay: t-PA production in transformed CHO cells, medium with 7.5% FKS, supernatant, direct chromogenic assay (DCA); assay type: cell-based, chinesische Hamster
Excerpt: Der Vektor für die t-PA-Produktion wurde in einem Subklon, CHO-K1-DUX B11, integriert (Urlaub et al., Proceedings of the National Academy of Science, USA, 77: 4216-4220, 1980). Diese Zell-Linie, eine Dihydrofolat Reduktase negative Mutante (DHFR-), ist für eine DHFR-abhängige Selektion der transfizierten Zellklone geeignet. Der Vektor für die humane c-DNA kann ein bekannter Plasmid-Vektor pBR-322 oder deren Abkömmling von Escherichia coli sein. Die Promotorregion für das in Frage kommende Gen und für das DHFR-Gen stammt aus SV 40 und die Terminationsregion für beide Gene von einem Hepatitis B-Oberflächenantigen. In den Beispielen wurden CHO-K1-DUX B11-Zellen, die durch die Plasmide pETPER oder pEPEFR transformiert sind, verwendet (siehe EP-A 0117059).
(§1) Die Zellkulturen werden bei 37°C in einem Hereaus-Brutschrank inkubiert und mit einem Kohlendioxid-Luftgemisch von 7,5% CO₂ in einer relativen Luftfeuchtigkeit von 100% belüftet. Je nach Verfahrensansatz werden unterschiedliche Kulturgefäße benutzt: Spinnergefäße für 100-1000 ml Medium, Roux-Schalen (Nunc) 175 cm² (70-100 ml Medium), 75 cm² (30-50 ml Medium), 25 cm² (7-10 ml Medium) und Mehrfachkulturschalen von Costar mit 2 cm² für 1 ml Kulturen. Für die Stammhaltung werden die Zellen in einer Dichte von 0,2-0,3 x 10⁶ Zellen/ml eingesetzt und alle 2-3 Tage subkloniert.
Die Protein-Produktion stimulierenden Substanzen können zu den verschiedenen Zeitpunkten jeweils in einer 1:100 Verdünnung zugegeben werden, d.h. sie wurden zuerst in Medium gelöst oder, wenn sie schwerlöslich sind, erst in Äthylalkohol gelöst und danach in Medium zugesetzt und dann das diese Substanz enthaltende Medium dem zellenthaltenden Medium im Verhältnis 1:100 v/v zugegeben.
In den folgenden Beispielen wurden, um die Stimulierung der t-PA-Synthese hervorzurufen, Zellen einer exponentiell wachsenden Kultur entnommen und in Plastikröhrchen (Falcon) 10 Min. bei 1000 x g in einer Beckmann T 3-6 Zentrifuge abzentrifugiert. Nach Dekantieren des Überstandes wurde das Zellpellet mit frischem Medium resuspendiert.
(§2) Für die Produktion von t-PA in serumhaltigem Medium wurde als frisches Medium F12/DMEM + 7,5% FKS + Gentamycin verwendet. Die resultierende Suspension kann in 2 cm² 24 Wells-Platten bei einer Zelldichte von 0,2-0,3 x 10⁶ Zellen/ml angesetzt werden.
Aliquots von Zellüberständen und Zellextrakten wurden zu verschiedenen Zeitpunkten abgenommen bzw. hergestellt. Die Messung der Proben erfolgte entweder sofort oder nach Aufbewahrung bei -20°C mit folgenden Methoden:
Von dem synthetischen Peptidsubstrat S-2288 (D-H-Ile-Pro-Arg-p-Nitroanilin) der Firma Kabi Diagnostica wird durch das t-PA p-Nitroanilin als Reaktionsprodukt gebildet. Die Aktivität von t-PA ist zur Bildung von p-Nitroanilin proportional, die bei […], 37°C, gemessen wird.
Die spektrophotometrische Bestimmung der Enzymkinetik wurde mit einem ACP-5010-Analysengerät der Firma Eppendorf automatisch durchgeführt.
Die Aktivität des Enzyms wurde anhand dieses vorgegebenen Standards berechnet. Eine t-PA-Standardreihe von 1-15 µg/ml wurde mit einem Laborstandard hergestellt, der zu 72% aus 1-kettigem Material besteht.
Die Substratlösung (100 mM Tris/106 mM NaCl) wurde in einer Konzentration von 50 mM eingesetzt.

CHO-Zellen [2] = assay: Extracellular protein content and [3H]-leucine incorporation in CHO cells, serum-free medium; assay type: cell-based, chinesische Hamster
CHO-Zellen [3] = assay: Cell growth / cell division of transformed CHO cells; assay type: cell-based, chinesische Hamster; settings: compared with Buttersäure
Procedure: as §1, §2
Für die Produktion von t-PA in serumfreiem Medium wurden die Zellen zuvor 3-4 Tage in einem Medium von 1-2% FKS adaptiert, wieder abzentrifugiert und das Zellpellet in serumfreiem Medium resuspendiert und anschließend in 2 cm² 24 Wells-Platten in einer Zelldichte von 0,4-0,5 x 10⁶ Zellen/ml überführt.

SMILES	Einfluß auf die Synthese von t-PA (Bowes-Melanoma-Zellen)	minimal effective concentration (CHO-Zellen [1]; CHO, read-out: für die t-PA-Stimulierung notwendige Konzentrationen) [µM]	% Steigerung der t-PA-Synthese Durchschnitt (CHO-Zellen [1]; Table 3, mean ± SE, n = 3-24, production runs of 3 to 4 days, acids added day 0 to 3, 1 ml supernatant vs control (0%), 7,5% FKS)	% Steigerung der t-PA-Synthese Maximum (CHO-Zellen [1]; Table 3, single sample, 1 ml supernatant vs control (0%), 7,5% FKS, its concentration, addition and sampling day in brackets in Tables 3/3A)	optimaler Dosisbereich (CHO-Zellen [1]; Table 3, stimulation of t-PA synthesis, medium with 7,5% FKS, bracketed value = concentration of the single (maximum) sample)	Steigerung der t-PA-Produktion (CHO-Zellen [1]; Table 4, Applikationstag 0, after 48 h growth, 7,5% FKS, 1 mM or 5 mM, 1 ml supernatant vs control (0%), mean ± SE)	Steigerung der t-PA-Produktion (CHO-Zellen [1]; Table 4, Applikationstag 1, after 48 h growth, 7,5% FKS, 1 mM or 5 mM, 1 ml supernatant vs control (0%), mean ± SE)	Steigerung der t-PA-Produktion (CHO-Zellen [1]; day 4, medium with 7,5% FKS (Abb. 7))	prozentuale Steigerung niedriger als Buttersäure (CHO-Zellen [1]; difference to Buttersäure)	Einbau von [³H]-Leucin (CHO-Zellen [2])	extrazellulärer Proteingehalt gegenüber der Kontrolle (CHO-Zellen [2])	Hemmung des Zellwachstums (CHO-Zellen [3])
CCCC(=O)Nc1ncnc2c1ncn2[C@@H]1O[C@@H]2COP(=O)(O)O[C@H]2[C@H]1OC(=O)CCC [Dibutyryl c-AMP]	keinen Einfluß											
CCC(=O)O [Propionsäure]		5000 to 10000	28,0 ± 2,5%	45,5%	5-10 mM (10 mM)	28,7 ± 9,3%	24,4 ± 4,1%	31,8%	ca. 14%	nur geringfügig gesteigert	nur gering erhöht	in geringerem Maße

— patent EP0315782A2, “Method for the production of proteins” (priority 1987, dated 1989)
